Source: PubChem BioAssay AID2305 (GlaxoSmithKline (GSK), 2010)
Where “and” joins values, the source holds several entries; their conditions need not be identical. Identical values can stand only once.

Tested on: P. falciparum 3D7 growth, pLDH absorbance
Assay: blood-stage malaria parasite growth potency – strain 3D7, dose response (AID 2305)

## N#Cc1ccc2c(c1)CCN(CCC1CCC(NC(=O)/C=C/c3ccc(F)c4ccccc34)CC1)CC2 (centres undefined)
  IC50: 840 nM

## CCc1c(CCNCCCCCCNCCc2ccc([N+](=O)[O-])cc2)ccc(OC)c1OC
  IC50: 730 nM

## NS(=O)(=O)c1ccc(Nc2nccc(-c3c(-c4cccc(NC(=O)c5c(F)cccc5F)c4)nn4ccccc34)n2)cc1
  IC50: 760 nM

## O=C(Nc1cccc(CN2CCCN(Cc3ccc4c(c3)OCO4)CC2)c1)c1ccc(-c2ccccc2)cc1
  IC50: 650 nM

## NC(=S)Cc1ccc2c(c1)OCO2
  IC50: 280 nM

## CN1CCN(c2ccc(-c3cccc(NC(=O)c4ccc5ccccc5c4)c3)nn2)CC1
  IC50: 380 nM

## Cc1ccc2c(c1)NC[C@@]21CCN(C[C@@H](O)C2CCN(c3ccnc(Cl)c3)CC2)C[C@@H]1C
  IC50: 940 nM

## O=[N+]([O-])c1ccc(/C=N/Nc2cc(-c3ccccc3)nc3ccccc23)o1
  IC50: 860 nM

## CN1CCN(c2ccc(Nc3ccnc4ccc(-c5ccccc5)cc34)cc2)CC1
  IC50: 90 nM

## COc1cc(C(F)(F)F)cc2[nH]c(CNCCCNc3nc4ccccc4[nH]3)cc12
  IC50: 280 nM

## Oc1ccc2nc(NCCCc3ccccc3)nc(NCCc3ccccc3)c2c1
  IC50: 290 nM

## O=C1OC2(CN1CC1CCN(Cc3ccc(-n4ccnc4)cc3)C1)c1ccccc1-c1ccccc12 (centres undefined)
  IC50: 980 nM

## Cc1[nH]n(-c2cccc(Cl)c2)c(=O)c1-c1ccc(Cl)cc1
  IC50: 930 nM

## Cc1cc(N2CCCC2)nc(Nc2ccc(NC(=O)c3ccccc3F)cc2)n1
  IC50: 920 nM

## Cc1ccc(N2C(N)=NC(N)=NC2(C)C)cc1Cl
  IC50: 10 nM

## O=C(Nc1ccc(-c2nc3ccccc3[nH]2)cc1)c1ccc(Cl)c([N+](=O)[O-])c1
  IC50: 800 nM

## CN(C)CCN(C)Cc1nc(-c2ccc3c(Nc4ccc(Oc5ccccc5)cc4)ccnc3c2)cs1
  IC50: 210 nM

## COC(=O)c1cc(C(O)CNC(C)CCCc2ccccc2)ccc1O (centres undefined)
  IC50: 740 nM

## Cc1cccc(NC(=O)N(Cc2cc3cc(C)cc(C)c3[nH]c2=O)C2CC2)c1
  IC50: 340 nM

## O=C(NCc1cccc(Br)c1)c1ccc(CNC2CCN(Cc3ccccc3)CC2)cc1
  IC50: 870 nM

## NCCNc1ccnc2cc(Cl)ccc12
  IC50: 130 nM

## COC(=O)c1ccc2c(c1)nc(Nc1cccc(F)c1)n2CC(O)c1ccccn1 (centres undefined)
  IC50: 730 nM

## CC(C)NCC(O)Cn1c2ccc(Br)cc2c2cc(Br)ccc21 (centres undefined)
  IC50: 450 nM

## Cc1csc(-c2nc(NCc3cccnc3)ncc2-c2ccsc2)n1
  IC50: 1190 nM

## CCOc1ccccc1CNc1nccc(NCc2ccc(Cl)cc2Cl)n1
  IC50: 1100 nM

## CCC(C)NS(=O)(=O)c1ccc2nc(Nc3ccc(C)c(Cl)c3)n([C@H](C)C(C)(C)C)c2c1 (some centres undefined)
  IC50: 380 nM

## CC(=O)Nc1cccc(C(=O)Nc2ccc(-c3cccc(-c4nc5c(C)cccc5[nH]4)c3)cc2)c1
  IC50: 790 nM

## Cn1c(Cc2ccccc2)nnc1Sc1ccc(C#N)c([N+](=O)[O-])c1
  IC50: 910 nM

## Cc1ccc(O)c(-c2cc(C(=O)Nc3ccc(S(=O)(=O)N4CCCCC4)cc3)[nH]n2)c1
  IC50: 810 nM

## O=C(Nc1ccc2c(c1)CN(Cc1ccc(N3CCCC3)o1)CCC2)c1cncs1
  IC50: 1570 nM

## Cc1cccc2[nH]c(-c3ccc(-c4cccc(CNCc5ccccc5)c4)s3)nc12
  IC50: 740 nM

## CCC[C@@H]([C@@H](CC1CCCCC1)C(=O)N[C@H](C(=O)Nc1nccs1)[C@H](C)O)N(O)C=O
  IC50: 150 nM

## CS(=O)(=O)c1ccc(OCCCN(Cc2ccccc2C(F)(F)F)c2ccc(C#N)c(C(F)(F)F)c2)cc1
  IC50: 1020 nM

## CCCCCC(C)(C)NC[C@@H](O)[C@H](Cc1ccccc1)NC(=O)c1cc(NCC)cc(N2CCCC2=O)c1
  IC50: 670 nM

## COc1cc(Cc2cnc(N)nc2N)c2c(c1OC)OC(C)(C)C=C2
  IC50: 1190 nM

## CCC(CC)(CCC#N)CN(C[C@@H](O)[C@H](Cc1ccccc1)NC(=O)OC(C)(C)C)S(=O)(=O)c1ccc(OC)cc1
  IC50: 1040 nM

## O=C(Nc1ccccc1N1CCOCC1)c1ncoc1-c1ccccc1C(F)(F)F
  IC50: 1060 nM

## CCNc1cc(C(=O)N[C@@H](Cc2ccccc2)[C@H](O)CNC2(CC(C)C)CC2)cc(N2CCCCS2(=O)=O)c1
  IC50: 1020 nM

## CC1CCCCC1N(C)C1CCN(CCCNC(=O)C=Cc2cccc(C(F)(F)F)c2)CC1 (centres undefined)
  IC50: 770 nM

## CC(C)n1nc(C(=O)N2CCN(c3ccccc3)CC2)c2ccccc2c1=O
  IC50: 980 nM

## CC(NC(=O)c1ccc(O)c(-c2ccc(Cl)c(Cl)c2)c1)C(=O)NCCN1CCCC1 (centres undefined)
  IC50: 760 nM

## CC(=O)Oc1cc(C)ccc1C1CCN(CCCCNC(=O)c2ccc(-c3ccc(C(F)(F)F)cc3)cc2)CC1
  IC50: 650 nM

## Cc1[nH]c(C)c(-c2ccc(-c3cc(C(F)(F)F)cc(C(F)(F)F)c3)nc2)c(=O)c1Br
  IC50: 80 nM

## COc1ccc(CN2CCCC(N3CC4(OC3=O)c3ccccc3-c3ccccc34)C2)c(O)c1 (centres undefined)
  IC50: 870 nM

## COc1cc(CC2c3cc(O)c(Cl)cc3CCN2C)c(OC)cc1C (centres undefined)
  IC50: 710 nM

## Cc1ccc(C[C@@H](C)NC[C@H](O)c2cccc(C(F)(F)F)c2)cc1
  IC50: 880 nM and 710 nM

## CN(C)CC1CCCN1Cc1ccccc1-c1cnn(C)c(=O)c1Oc1cccc(C#N)c1 (centres undefined)
  IC50: 1340 nM

## CC(=O)N1CCN(c2ccc(NC(=O)c3oc(-c4ccccc4)nc3C(F)(F)F)cn2)CC1
  IC50: 840 nM

## COc1ccc2c(OC)c(CNCCCCCCNCc3ccc4cc(OC)ccc4c3OC)ccc2c1
  IC50: 920 nM

## O=C(Cn1c(CCc2cccc(F)c2F)nc(=O)c2ccccc21)N(Cc1ccc(-c2ccc(C(F)(F)F)cc2)cc1)C1CCN(C2=NCCS2)CC1
  IC50: 1330 nM

## NC(=NCCCCCCN=C(N)/N=C(\N)c1ccc(Cl)cc1)/N=C(\N)c1ccc(Cl)cc1
  IC50: 210 nM

## O=C(Nc1ccc(Oc2ccccc2)cc1)N(Cc1ccc(-c2ccc(CN3CCNCC3)cc2)cc1)C1CCN(Cc2ccccc2)CC1
  IC50: 890 nM

## CCOc1c(CNCCCNc2cc(=O)c3ccccc3[nH]2)cc(I)cc1C(C)(C)C
  IC50: 700 nM

## COC(=O)c1ccc(-c2ccc(C(=O)NCC3CCN(c4nc(N)c5cc(OC)c(OC)cc5n4)CC3)cc2)cc1
  IC50: 180 nM

## O=C(Nc1ccc(Cn2ncc(N3CCCNCC3)c(Cl)c2=O)cc1)Nc1ccc(SC(F)(F)F)cc1
  IC50: 530 nM

## NS(=O)(=O)c1cccc(-c2ccc3ncc(N4CCOCC4)nc3c2)c1
  IC50: 990 nM

## C[C@@H](C(N)=O)N1CCCCC1c1ccc(OCc2cccc(F)c2)cc1 (some centres undefined)
  IC50: 990 nM

## CCCCN(Cc1cnccc1-c1ccc(Br)cc1)c1ccc(C(O)(C(F)(F)F)C(F)(F)F)cc1
  IC50: 1060 nM

## Cc1c(C(=O)N(C)C)sc2c1c(=O)n(Cc1ccccc1)c(=O)n2CC(=O)Nc1ccccc1F
  IC50: 660 nM

## Cc1cc(N[C@@H](CC(C)C)C(=O)NCc2cccs2)nc(NCCc2ccccc2)n1
  IC50: 1190 nM

## COc1cccc(-c2[nH]c3ccccc3c2CN2CCC(c3c(C)cccc3C)CC2)c1
  IC50: 1020 nM

## O=C(Nc1cccc(CN2CCCN(Cc3ccccc3)CC2)c1)c1ccc(-c2ccccc2)cc1
  IC50: 1300 nM

## Cc1nnsc1C(=O)Nc1cccc(-c2ccc(-c3nc4ccc(F)cc4[nH]3)cc2)c1
  IC50: 100 nM

## CCN1CCCC1CN(Cc1ccc(-c2ccc(C(F)(F)F)cc2)cc1)C(=O)Cn1c(CCc2cccc(F)c2F)nc(=O)c2ccccc21 (centres undefined)
  IC50: 1590 nM

## CCCOc1ccccc1C(=O)Nc1nonc1-c1ccc(OCC)c(OCC)c1
  IC50: 710 nM

## COc1cc(OC)c(NC(=O)COc2ccc(C)cc2)cc1Cl
  IC50: 690 nM

## CC1(C)Cc2c([nH]c3ccccc23)C(CCCCCCCCC2=NC(C)(C)Cc3c2[nH]c2ccccc32)=N1
  IC50: 930 nM

## Cc1ccc(-c2nc3cc(NC(=O)c4ccc([N+](=O)[O-])o4)ccc3o2)cc1Cl
  IC50: 160 nM

## CS(=O)(=O)CCNCc1nc(-c2ccc3c(=O)[nH]cnc3c2)cs1
  IC50: 1010 nM
